In US7838049B2, “Extracts and compounds for inhibiting tyrosinase activity” (Taipei Medical University, priority 2009, dated 2010):

Columns and labels:
tyrosinase [1] = target: T1, tyrosinase (Homo sapiens, UniProt P14679); experiment: Assay of tyrosinase activity in human melanocyte (HEMn) cells; format: cell-based; settings: for inhibitory activity on tyrosinase: HEMn cells treated 24 hours, lysate reacted with L-DOPA, OD475 vs control, FIG. 1 and FIG. 2
T1 construct: Lysis buffer (1% Triton X-100, 1 mM phenylmethylsulfonyl fluoride (PMSF), 1 μg/ml aprotinin, and 10 μg/ml leupeptin) was added to the resulting cells to obtain the cell proteins; host or cells: HEMn human melanocytes, passages 3 to 10
T1 sequence (P14679 19-529): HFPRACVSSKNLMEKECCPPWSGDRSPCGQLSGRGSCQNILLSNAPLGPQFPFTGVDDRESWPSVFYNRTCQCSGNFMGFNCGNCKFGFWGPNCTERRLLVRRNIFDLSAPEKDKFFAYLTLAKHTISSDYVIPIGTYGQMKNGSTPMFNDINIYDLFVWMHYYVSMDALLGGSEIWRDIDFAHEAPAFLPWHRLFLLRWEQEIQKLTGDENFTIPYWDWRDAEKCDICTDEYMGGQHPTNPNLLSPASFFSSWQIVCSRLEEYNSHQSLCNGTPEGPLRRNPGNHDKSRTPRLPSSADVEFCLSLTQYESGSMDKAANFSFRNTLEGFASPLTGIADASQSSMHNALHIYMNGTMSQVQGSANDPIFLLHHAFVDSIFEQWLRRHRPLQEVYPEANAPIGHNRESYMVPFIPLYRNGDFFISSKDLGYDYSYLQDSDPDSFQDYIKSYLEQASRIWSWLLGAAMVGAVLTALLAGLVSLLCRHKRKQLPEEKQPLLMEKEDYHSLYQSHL
Procedure: Human melanocyte (HEMn) cells are cultured with medium 254 containing antibiotics and growth factors (Cascade Biologics, Inc., Portland, Oreg., USA) in an incubator with 5% CO2 for serial passage. Passages 3 to 10 of the HEMn cells were used in the experiments below.
HEMn cells were further cultured for 48 hours and then the ethyl acetate extract of the invention and the test compounds (MHL-1: 3,4-dihydroxy-5-methoxybiphenyl-2′-O-β-d-glucopyranoside and MHL-2: 3,6-dihydroxy-2,4-dimethoxy-dibenzofuran) were added. After 24 hours, the cells were washed with PBS buffer. Lysis buffer (1% Triton X-100, 1 mM phenylmethylsulfonyl fluoride (PMSF), 1 μg/ml aprotinin, and 10 μg/ml leupeptin) was added to the resulting cells to obtain the cell proteins. The cell proteins were kept at −80° C. Subsequently, the cell proteins were thawed and then centrifuged at 12,000 rpm for 5 minutes. The supernatant was taken for determination of the amount of protein by BCA protein assay. The proteins with different concentrations were added to a 96-well microplate and then PBS buffers were added. L-DOPA was added to the microplate to react with the protein at 37° C. for 1 hour. The absorbance of the solution at 475 nm wavelength was detected. Tyrosinase activity (%)=(OD475 of the sample/OD475 of control)×100.
Arbutin as positive control and 1% DMSO as blank were used in the tyrosinase activity assay stated above. […] MHL-1 and MHL-2 inhibit around 40% and 20% tyrosinase activity, respectively. The ethyl acetate extract and the compounds of the invention are effective in inhibiting tyrosinase.

tyrosinase [2] = target: T1, tyrosinase; experiment: Tyrosinase oxidative activity analysis by L-Dopa staining of SDS-PAGE gels; format: cell-based; settings: HEMn cells treated with 100, 80 and 60 μM of MHL-1; FIG. 3
Procedure: The compound of the invention, MHL-1, with different concentrations was added to HEMn cells. The lysis of HEMn cells, isolation of cell proteins and BCA protein assay were performed on the supernatant obtained as stated in Example 1 so that the amount of the protein could be determined. 10% SDS-polyacrylamide gel electrophoresis (dd-H2O; 10% Acrylamide mix; 1.5M Tris-base pH8.8; 10% SDS; 10% Ammonium persulfate; TEMED) was performed on the resulting protein and the sample buffer (60 mM Tris-HCl, pH 6.8, 2% sodium dodecyl sulfate (SDS), 10% glycerol, 0.01% bromophenol blue) at the same time. The molecular weight of tyrosinase was about 72 kDa. The resulting gels were washed with 0.1 M of PBS (pH 6.8) for 30 minutes and then the protein at the position of 72 kDa reacted with 5 mM L-DOPA in 0.1 M PBS at 37° C. for 1 hour. After the reaction, Quantity One 1-D software was used to determine the amount of protein.

Compound	inhibitory activity on tyrosinase (tyrosinase [1])	tyrosinase inhibitory activity compared with arbutin (positive control) (tyrosinase [1]; HEMn cells, FIG. 2)	tyrosinase oxidative activity (L-DOPA staining of the 72 kDa band) (tyrosinase [2])
COc1cc(-c2ccccc2OC2OC(CO)C(O)C(O)C2O)cc(O)c1O [MHL-1, 3,4-dihydroxy-5-methoxybiphenyl-2′-O-β-D-glucopyranoside]	around 40%	superior activity compared to arbutin	the higher the concentration of MHL-1, the lower the tyrosinase oxidative activity
COc1cc2c(oc3c(O)cccc32)c(OC)c1O [MHL-2, 3,6-dihydroxy-2,4-dimethoxy-dibenzofuran]	~20%	–	–
